Measured values as given in patent US20030162661A1, “2,4-Diamino-1,3,5-triazines, their preparation, and their use as herbicides and plant growth regulators” (priority 1998, published 2003).

Assays:
Format in all cases: in vivo
[1] = tested on: harmful plants such as Stellaria media, Lolium multiflorum, Amaranthus retroflexus, Sinapis alba, Avena sativa and Setaria viridis; experiment: Pre-emergence effect on weeds (greenhouse pot test, visual scoring); details: applied pre-emergence at an application rate of 1 kg or less of active substance per hectare; scored visually after 3 to 4 weeks vs untreated controls
Text: 1 Pre-emergence Effect on Weeds
Seeds or rhizome pieces of monocotyledonous and dicotyledonous weeds plants are placed in sandy loam soil in plastic pots and covered with soil. The compounds according to the invention which are formulated in the form of wettable powders or emulsion concentrates are then applied to the surface of the soil cover in the form of an aqueous suspension or emulsion at an application rate of 600 to 800 l of water/ha (converted), in various dosages.

[2] = tested on: harmful plants such as Sinapis alba, Echinochloa crus- galli, Lolium multiflorum, Stellaria media, Cyperus iria, Amaranthus retroflexus, Setaria viridis and …; experiment: Post-emergence effect on weeds (greenhouse pot test, visual scoring); details: applied post-emergence (three-leaf stage) at an application rate of 1 kg and less of active substance per hectare; scored visually after about 3 to 4 weeks vs untreated controls
Method: 2. Post-emergence Effect on Weeds
Seeds or rhizome pieces of monocotyledonous and dicotyledonous weeds are placed in sandy loam soil in plastic pots, covered with soil and grown in the greenhouse under good growth conditions. Three weeks after sowing, the test plants are treated in the three-leaf stage. The compounds according to the invention which are formulated as wettable powders or as emulsion concentrates are sprayed in various dosages on the green parts of the plants at an application rate of 600 to 800 l of water/ha (converted). After the test plants have remained in the greenhouse for about 3 to 4 weeks under ideal growth conditions, the effect of the preparations is scored visually by comparison with untreated controls. The agents according to the invention also have a good herbicidal post-emergence action against a broad range of economically important grass weeds and dicotyledonous weeds.

[3] = tested on: harmful plants which are typical for rice cultivation, such as Cyperus monti, Echinochloa crus-galli and Sagittaria pygmaea; experiment: Effect on harmful plants in rice (paddy rice conditions, visual scoring); details: applied into the flooding water, various dosages, scored visually approximately three weeks after application
Method: 3. Effect on Harmful Plants in Rice
Transplanted and seeded rice and typical broad-leaved and monocotyledonous rice weeds are grown in the greenhouse to the three-leaf stage (Echinochloa crus- galli 1.5 leaf) under paddy rice conditions (depth of the water: 2-3 cm) in sealed plastic pots. They are then treated with the compounds according to the invention. To this end, the formulated active substances are suspended, dissolved or emulsified in water and applied in various dosages by pouring into the water with which the test plants are flooded. After this treatment, the test plants are placed in the greenhouse under ideal growth conditions and kept thus over the entire experimental period.
Approximately three weeks after application, the test is evalued by means of visually scoring the damage to the plants by comparison with untreated controls.

Row | Structure (SMILES) | herbicidal action against harmful plants, pre-emergence [1] | herbicidal action against harmful plants, post-emergence [2] | herbicidal action against harmful plants typical for rice cultivation [3]
1 | CC(C)c1nc(N)nc(NC(CCc2ccccc2)C2CCC2)n1 (centres unmarked) [Example 4-1] | very good herbicidal action | very good herbicidal action | good herbicidal action
2 | Cc1cccc(CCC(Nc2nc(N)nc(C(C)(C)F)n2)C2CCC2)c1 (centres unmarked) [Example 4-15] | very good herbicidal action | very good herbicidal action | good herbicidal action
3 | CC(C)(F)c1nc(N)nc(NC(CCc2ccccc2)C2CCC2)n1 (centres unmarked) [Example 4-2, 2-Amino-4-(1-fluoro-1-methylethyl)-6-(3-phenyl-1-cyclobutyl-1-propylamino)-1,3,5-triazine] | very good herbicidal action | very good herbicidal action | good herbicidal action
4 | COc1cccc(CCC(Nc2nc(N)nc(C(C)(C)F)n2)C2CCC2)c1 (centres unmarked) [Example 4-24] | very good herbicidal action | very good herbicidal action | good herbicidal action
5 | COc1cccc(CCC(Nc2nc(N)nc(C(C)C)n2)C2CCC2)c1 (centres unmarked) [Example 4-23] | very good herbicidal action | very good herbicidal action | good herbicidal action
6 | CC(C)(F)c1nc(N)nc(NC(CCc2ccccc2)C2CC2)n1 (centres unmarked) [Example 9-10] | very good herbicidal action | very good herbicidal action | good herbicidal action
7 | CC(C)(F)c1nc(N)nc(NC(CCCc2ccccc2)C2CC2)n1 (centres unmarked) [Example 22-12, 2-Amino-4-(1-fluoro-1-methylethyl)-6-(1-phenyl-4-cyclopropyl-4-butylamino)-1,3,5-triazine] | very good herbicidal action | very good herbicidal action | 
8 | Cc1cccc(CCC(CC2CC2)Nc2nc(N)nc(C(C)C)n2)c1 (centres unmarked) [Example 32-9] | very good herbicidal action | very good herbicidal action | 
9 | CC(C)(F)c1nc(N)nc(NC(CCCCc2ccccc2)C2CCC2)n1 (centres unmarked) [Example 31-1] | very good herbicidal action | very good herbicidal action | 
10 | Cc1nc(N)nc(NC(CCc2ccccc2)C2CCC2)n1 (centres unmarked) [Example 4-3] | very good herbicidal action | very good herbicidal action | 
11 | CC(C)c1nc(N)nc(NC(CCc2ccccc2)CC2CC2)n1 (centres unmarked) [Example 32-1] | very good herbicidal action | very good herbicidal action | 
12 | COc1cccc(CCCC(Nc2nc(N)nc(C(C)(C)F)n2)C2CCC2)c1 (centres unmarked) [Example 28-21] | very good herbicidal action | very good herbicidal action | 
13 | COc1cccc(CCC(CC2CC2)Nc2nc(N)nc(C(C)C)n2)c1 (centres unmarked) [Example 32-11] | very good herbicidal action | very good herbicidal action | 
14 | CC(C)c1nc(N)nc(NC(CCc2cccc(Cl)c2)CC2CC2)n1 (centres unmarked) [Example 32-5] | very good herbicidal action | very good herbicidal action | 
15 | CC(C)(F)c1nc(N)nc(NC(CCc2ccccc2)C2CC2(C)C)n1 (centres unmarked) [Example 10-1] | very good herbicidal action | very good herbicidal action | 
16 | CCc1nc(N)nc(NC(CCCc2ccccc2)C2CC2)n1 (centres unmarked) [Example 22-9] | very good herbicidal action | very good herbicidal action | 
17 | CC(C)c1nc(N)nc(NC(CCc2cccc(Cl)c2)C2CC2)n1 (centres unmarked) [Example 9-7] | very good herbicidal action | very good herbicidal action | good herbicidal action

Row | Structure (SMILES) | herbicidal action against harmful plants, pre-emergence [1] | herbicidal action against harmful plants, post-emergence [2] | herbicidal action against harmful plants typical for rice cultivation [3]
18 | Cc1cccc(CCC(Nc2nc(N)nc(C(C)C)n2)C2CCC2)c1 (centres unmarked) [Example 4-14] | very good herbicidal action | very good herbicidal action | good herbicidal action
19 | CC(C)c1nc(N)nc(NC(CCc2cccc(C(F)(F)F)c2)C2CC2)n1 (centres unmarked) [Example 9-11] | very good herbicidal action | very good herbicidal action | 
20 | Cc1cccc(CCC(Nc2nc(C)nc(N)n2)C2CCC2)c1 (centres unmarked) [Example 4-29, 2-Amino-6-methyl-4-[3-(3-methylphenyl)-1-cyclobutyl-1-propylamino]1,3,5-triazine] | very good herbicidal action | very good herbicidal action | 
21 | COc1cccc(CCC(Nc2nc(N)nc(C(C)(C)F)n2)C2CC2)c1 (centres unmarked) [Example 9-14] | very good herbicidal action | very good herbicidal action | 
22 | CC(C)Cc1nc(N)nc(NC(CCCc2ccccc2)C2CCC2)n1 (centres unmarked) [Example 28-5] | very good herbicidal action | very good herbicidal action | 
23 | CC(C)(C#N)c1nc(N)nc(NC(CCc2ccccc2)C2CC2)n1 (centres unmarked) [Example 9-4] | very good herbicidal action | very good herbicidal action | good herbicidal action
24 | CC(C)(F)c1nc(N)nc(NC(CCCc2cccc(Cl)c2)C2CC2)n1 (centres unmarked) [Example 22-18] | very good herbicidal action | very good herbicidal action | 
25 | CC(C)(F)c1nc(N)nc(NC(CCc2cccc(F)c2)C2CC2)n1 (centres unmarked) [Example 9-5] | very good herbicidal action | very good herbicidal action | good herbicidal action
26 | CC(C)c1nc(N)nc(NC(CCc2cccc(Cl)c2)C2CCC2)n1 (centres unmarked) [Example 4-10] | very good herbicidal action | very good herbicidal action | 
27 | Cc1cccc(CCCC(Nc2nc(N)nc(C(C)C)n2)C2CC2)c1 (centres unmarked) [Example 22-26] | very good herbicidal action | very good herbicidal action | 
28 | CC(C)(F)c1nc(N)nc(NC(CCc2ccccc2)C2CCCO2)n1 (centres unmarked) [Example 19-5] | very good herbicidal action | very good herbicidal action | 
29 | CC(C)c1nc(N)nc(NC(CCc2ccccc2)c2ccccc2)n1 (centres unmarked) [Example 18-4] | very good herbicidal action | very good herbicidal action | 
30 | CC(C)(F)c1nc(N)nc(NC(CCc2cccc(Cl)c2)C2CC2)n1 (centres unmarked) [Example 9-8] | very good herbicidal action | very good herbicidal action | 
31 | CC(C)c1nc(N)nc(NC(CCc2ccccc2)C2CC2)n1 (centres unmarked) [Example 9-9] | very good herbicidal action | very good herbicidal action | good herbicidal action
32 | COc1cccc(CCC(CC2CC2)Nc2nc(N)nc(C(C)(C)F)n2)c1 (centres unmarked) [Example 32-12] | very good herbicidal action | very good herbicidal action | 
33 | CC(C)c1nc(N)nc(NC(CCCc2ccccc2)C2CC2)n1 (centres unmarked) [Example 22-11] | very good herbicidal action | very good herbicidal action | 
